The nature of data set [1]: Reactivity (% depletion) of nucleophilic reagent Compound 1 with test substance, HPLC; skin sensitization prediction. To be noted: for reactivity of Compound 1 in comparison with NAC and NAL in ADRA / reactivity of Compound 1 in comparison with NAC-amide / reactivity of Compound 1 in comparison with GSH-NBD / reactivity of Compound 1 in comparison with the cysteine peptide and the lysine peptide in DPRA: FIG. 3, FIG. 4; for reactivity of Compound 1 with the substance: in words.

For data set [2] the following is noted: prediction results published in the literature; cited from earlier work.
The conditions of data set [3]: in vivo; cited from earlier work.
The nature of data set [4]: DPRA (direct peptide reactivity assay). To be noted: in words. The source says:
For example, [Gerberick, G. F., Vassallo, J. D., Bailey, R. E., Chaney, J. G., Morrall, S. W., and Lepoittevin, J. P. (2004). Development of a peptide reactivity assay for screening contact allergens. Toxicological Sciences, 81 (2), pp. 332-343] and [Gerberick, G. F., Vassallo, J. D., Foertsch, L. M., Price, B. B., Chaney, J. G., and Lepoittevin, J. P. (2007). Quantification of chemical peptide reactivity for screening contact allergens: a classification tree model approach. Toxicological Sciences, 97 (2), pp. 417-427] describe a method using two types of peptides (a cysteine peptide and a lysine peptide) as nucleophilic reagents. In addition, JP2011-59102A and JP2014-37995A describe a reagent for measuring skin sensitization and a method for measuring skin sensitization, using a cysteine derivative into which an aryl ring has been introduced and a lysine derivative into which an aryl ring has been introduced as nucleophilic reagents (also referred to as ADRA).
Natsch A. and Gfeller H. (2008). […] Quantification of chemical peptide reactivity for screening contact allergens: a classification tree model approach. […]
One type of nucleophilic reagent (Compound 1) was evaluated. In addition, the following compounds were also evaluated in the same manner as controls for comparison of the reactivity to the fifteen types of evaluation substances. • Cys peptide • Lys peptide

The conditions of data set [5]: prediction results published in the literature; cited from earlier work. This is another data set of the same source.
Data set [6] in a line: Stability of nucleophilic reagent (residual ratio, HPLC-UV). It counts as physicochemical. The protocol:
Immediately after preparation of the reaction solution (0 hours) and after incubation of the reaction solution at 25° C. for 24 hours (24 hours), the reaction solution is measured by HPLC-UV. At this time, since the nucleophilic reagent and the oxidized form and modified form of the nucleophilic reagent can be confirmed on HPLC, the residual ratio of the nucleophilic reagent is calculated based on the following equation.
Residual ratio (%) of nucleophilic reagent=area value of nucleophilic reagent/(area value of nucleophilic reagent+area value of oxidized form of nucleophilic reagent+area value of modified form of nucleophilic reagent)×100

This is an account of results in patent US20230258569A1, “REAGENT FOR MEASURING SKIN SENSITIZATION, COMPOUND, AND METHOD FOR MEASURING SKIN SENSITIZATION” (FUJIFILM Corporation, priority 2020, published 2023).

Counter-ions that a name gives are not always drawn.

For `CCCCCCI` [Compound 1-Iodohexane, 1-Iodohexane], in data set [1], the “reactivity of Compound 1 in comparison with NAC and NAL in ADRA” value (shortened to “reactivity … in ADRA”) was “same level of reactivity”; the “reactivity of Compound 1 in comparison with NAC-amide” value (“reactivity … with NAC-amide” below) is recorded as “same level of reactivity”; the “reactivity of Compound 1 with the substance” value is “no reactivity”. The ADRA prediction entry in data set [2] was “Negative”. Besides, in data set [3], the “Category of LLNA sensitization” value is “None”. Moreover, the “reactivity with the cysteine peptide in DPRA” value in data set [4] was “reactive”.

`CCCCCC(C=O)=Cc1ccccc1` [α-Pentyl cinnamaldehyde]: in data set [1], the “reactivity of Compound 1 in comparison with GSH-NBD” value (“reactivity … with GSH-NBD” for short) is on record as “higher reactivity”; the “reactivity … in ADRA” value is “higher reactivity”; the “reactivity … with NAC-amide” value was “higher reactivity”; the “reactivity of Compound 1 in comparison with the cysteine peptide and the lysine peptide in DPRA” value (“reactivity of Compound 1 in comparison … in DPRA” below) was “higher reactivity”. In data set [3], the “Category of LLNA sensitization” value was “Weak”.

Take `COc1ccc(C(C)=O)cc1` [4′-Methoxyacetophenone]: in data set [1], the “reactivity … in ADRA” value is “same level of reactivity”; the “reactivity … with NAC-amide” value is “same level of reactivity”; the “reactivity of Compound 1 in comparison … in DPRA” value is listed as “same level of reactivity”. For the same molecule, the DPRA prediction result in data set [5] was “Negative”. The ADRA prediction result in data set [2] is reported as “Negative”. In data set [3], the “Category of LLNA sensitization” value is “None”.

Take `NNC(=O)[C@H](CS)NC(=O)Cc1cccc2ccccc12` [Compound 1]: the “residual ratio of nucleophilic reagent” value is reported as not below 85% in data set [6] (after 24 hours, 25° C.) and not below 90% in data set [6] (immediately after solution preparation (0 hours)).

For `CCC=C1OC(=O)c2ccccc21` [3-Propylidene phthalide], in data set [1], the “reactivity … in ADRA” value is “same level of reactivity”; the “reactivity … with NAC-amide” value was “same level of reactivity”; the “reactivity of Compound 1 in comparison … in DPRA” value is listed as “lower reactivity”. In addition, the DPRA prediction result in data set [5] was “Positive”. In data set [3], the “Category of LLNA sensitization” value is on record as “Moderate”.

Consider `CCCCCCCCC(=O)Cl` [Nonanoyl chloride], for which, in data set [1], the “reactivity … with GSH-NBD” value is on record as “GSH-NBD showed higher reactivity”; the “reactivity … in ADRA” value was “higher reactivity”; the “reactivity … with NAC-amide” value was “same level of reactivity”; the “reactivity of Compound 1 in comparison … in DPRA” value is “higher reactivity”. In addition, the ADRA prediction result in data set [2] is on record as “Positive”. The “Category of LLNA sensitization” value in data set [3] was “Moderate”.

With `O=c1cccccc1O` [Tropolone], in data set [1], the “reactivity … in ADRA” value is listed as “higher reactivity”; the “reactivity … with NAC-amide” value is listed as “same level of reactivity”; the “reactivity of Compound 1 in comparison … in DPRA” value is reported as “lower reactivity”. Also, the DPRA prediction result in data set [5] was “Positive”. Further, the “Category of LLNA sensitization” value in data set [3] is “Moderate”.

Consider `CC(C=O)Cc1ccc(C(C)C)cc1` (centres unmarked) [Cyclamen aldehyde], for which, in data set [1], the “reactivity … with GSH-NBD” value is on record as “higher reactivity”; the “reactivity … in ADRA” value is “higher reactivity”; the “reactivity … with NAC-amide” value is reported as “higher reactivity”; the “reactivity of Compound 1 in comparison … in DPRA” value is recorded as “higher reactivity”. Also, in data set [5], the DPRA prediction entry was “Positive”. Besides, the “Category of LLNA sensitization” value in data set [3] was “Weak”.

In the case of `COC(=O)C(C)=O` [Methyl pyruvate], in data set [1], the “reactivity … with GSH-NBD” value is recorded as “higher reactivity”; the “reactivity … in ADRA” value is recorded as “higher reactivity”; the “reactivity … with NAC-amide” value was “higher reactivity”; the “reactivity of Compound 1 in comparison … in DPRA” value is “higher reactivity”. Besides, in data set [3], the “Category of LLNA sensitization” value is on record as “Moderate”.

`O=C(Oc1ccccc1)c1ccccc1` [Phenyl benzoate]: in data set [1], the “reactivity … in ADRA” value was “higher reactivity”; the “reactivity … with NAC-amide” value was “same level of reactivity”; the “reactivity of Compound 1 in comparison … in DPRA” value is on record as “lower reactivity”. In data set [5], the DPRA prediction result is reported as “Positive”. Moreover, the “Category of LLNA sensitization” value in data set [3] is “Weak”.

`O=C(O)c1ccc2c(c1)C(=O)OC2=O` [Trimellitic anhydride]: in data set [1], the “reactivity … with GSH-NBD” value is “GSH-NBD showed higher reactivity”; the “reactivity … in ADRA” value was “NAL showed higher reactivity than Compound 1”; the “reactivity … with NAC-amide” value is given as “higher reactivity”; the “reactivity of Compound 1 in comparison … in DPRA” value was “same level of reactivity”. In addition, in data set [1] (pH 7.4), the “depletion of Compound 1” value was 41.0%. In data set [1] (pH 8.0), the “depletion of Compound 1” value was 37.2%. In addition, the DPRA prediction result in data set [5] is reported as “Positive”. Besides, the ADRA prediction entry in data set [2] is given as “Positive”. The “Category of LLNA sensitization” value in data set [3] was “Strong”.

Take `O=c1c(-c2ccccc2)c1-c1ccccc1` [Diphenylcyclopropenone]: in data set [1], the “reactivity … in ADRA” value was “higher reactivity”; the “reactivity … with NAC-amide” value is reported as “same level of reactivity”; the “reactivity of Compound 1 in comparison … in DPRA” value is “same level of reactivity”. The DPRA prediction entry in data set [5] was “Positive”. Also, in data set [2], the ADRA prediction result is “Positive”.

As for `CCOC(=O)CC(=O)c1ccccc1` [Ethyl benzoylacetate], in data set [1], the “reactivity … in ADRA” value is “same level of reactivity”; the “reactivity … with NAC-amide” value is “same level of reactivity”; the “reactivity of Compound 1 in comparison … in DPRA” value is given as “same level of reactivity”. For the same molecule, the DPRA prediction result in data set [5] was “Negative”. For the same molecule, the ADRA prediction result in data set [2] is reported as “Negative”. Further, the “Category of LLNA sensitization” value in data set [3] is listed as “None”.

With `CCCCBr` [1-Bromobutane], in data set [1], the “reactivity … in ADRA” value is “same level of reactivity”; the “reactivity … with NAC-amide” value is “same level of reactivity”; the “reactivity of Compound 1 with the substance” value is recorded as “no reactivity”. Further, in data set [2], the ADRA prediction entry was “Negative”. The “reactivity with the cysteine peptide in DPRA” value in data set [4] was “reactive”.

`CCOS(=O)(=O)OCC` [Diethyl sulfate]: in data set [5], the DPRA prediction entry is on record as “Positive”.
